According to PubChem BioAssay AID330 (DTP/NCI, 2004):
Values joined by “and” are separate entries in the source; they are usually repeats but may differ in a detail not shown here. Equal values may be shown once. Toxic doses and inconclusive results are not listed.

System: P388 leukemia ip, CD2F1 mice, survival T/C
Test: NCI In Vivo Anticancer Drug Screen. Data for tumor model P388 Leukemia (intraperitoneal) in CD2F1 (CDF1) mice
Details: endpoint: median survival time, higher = longer survival
Method in brief: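 Mice carrying the transplanted tumor received test compound or vehicle. Survival was recorded in each group, and the value is the treated-group measurement divided by that of the vehicle-treated control group.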

[1] = dose: 25.0 mg/kg/injection, schedule: Q04DX003 (ip), vehicle: saline with Tween-80
[2] = dose: 50.0 mg/kg/injection, schedule: Q04DX003 (ip), vehicle: saline with Tween-80
[3] = dose: 100.0 mg/kg/injection, schedule: Q04DX003 (ip), vehicle: saline with Tween-80
[4] = dose: 50.0 mg/kg/injection, schedule: Q01DX005 (ip), vehicle: Klucel (hydroxypropylcellulose) (HPC)
[5] = dose: 100.0 mg/kg/injection, schedule: Q01DX005 (ip), vehicle: Klucel (hydroxypropylcellulose) (HPC)
[6] = dose: 200.0 mg/kg/injection, schedule: Q01DX005 (ip), vehicle: Klucel (hydroxypropylcellulose) (HPC)
[7] = dose: 100.0 mg/kg/injection, schedule: Q01DX009 (ip), vehicle: saline
[8] = dose: 200.0 mg/kg/injection, schedule: Q01DX009 (ip), vehicle: saline
[9] = dose: 60.0 mg/kg/injection, schedule: Q01DX005 (ip), vehicle: saline with Tween-80
[10] = dose: 120.0 mg/kg/injection, schedule: Q01DX005 (ip), vehicle: saline with Tween-80
[11] = dose: 240.0 mg/kg/injection, schedule: Q01DX005 (ip), vehicle: saline with Tween-80
[12] = dose: 60.0 mg/kg/injection, schedule: Q01DX005 (ip), vehicle: Klucel (hydroxypropylcellulose) (HPC)
[13] = dose: 120.0 mg/kg/injection, schedule: Q01DX005 (ip), vehicle: Klucel (hydroxypropylcellulose) (HPC)
[14] = dose: 50.0 mg/kg/injection, schedule: Q01DX009 (ip), vehicle: saline with Tween-80
[15] = dose: 100.0 mg/kg/injection, schedule: Q01DX009 (ip), vehicle: saline with Tween-80
[16] = dose: 6.25 mg/kg/injection, schedule: Q04DX003 (ip), vehicle: saline with Tween-80
[17] = dose: 200.0 mg/kg/injection, schedule: Q01DX009 (ip), vehicle: saline with Tween-80
[18] = dose: 50.0 mg/kg/injection, schedule: Q01DX009 (ip), vehicle: saline

COc1ccc(C(=O)/C=N/O)cc1
T/C [1]: 95 % of control | T/C [2]: 95 % of control | T/C [3]: 86 % of control

CC(=O)CCC(=O)[O][Bi]([c]1ccccc1)[c]1ccccc1
T/C [4]: 110 % of control | T/C [5]: 114 % of control | T/C [6]: 114 % of control

CSC(=S)NN=C(c1ccccc1)c1ccccc1
T/C (dose: 0.78 mg/kg/injection, schedule: Q01DX009 (ip), vehicle: saline): 102 % of control | T/C (dose: 1.56 mg/kg/injection, schedule: Q01DX009 (ip), vehicle: saline): 102 % of control | T/C (dose: 3.12 mg/kg/injection, schedule: Q01DX009 (ip), vehicle: saline): 100 % of control | T/C [7]: 113 % of control | T/C [8]: 96 % of control

CCOC(=O)C(C)(C)Oc1ccc(N=[N+]=[N-])cc1
T/C [9]: 100 % of control | T/C [10]: 104 % of control | T/C [11]: 109 % of control

CC(CCN(C)C)N(C)C (configuration not stated)
T/C (dose: 50.0 mg/kg/injection, schedule: Q01DX005 (ip), vehicle: suspension in saline): 106 % of control | T/C (dose: 100.0 mg/kg/injection, schedule: Q01DX005 (ip), vehicle: suspension in saline): 98 % of control

CN1C=C([N+](=O)[O-])C(N2CCOCC2)C1N1CCOCC1 (configuration not stated)
T/C [12]: 96 % of control | T/C [13]: 114 % of control

O=C/C=C/N=c1ccn(O)cc1
T/C (dose: 60.0 mg/kg/injection, schedule: Q01DX005 (ip), vehicle: saline): 105 % of control | T/C (dose: 120.0 mg/kg/injection, schedule: Q01DX005 (ip), vehicle: saline): 100 % of control | T/C (dose: 240.0 mg/kg/injection, schedule: Q01DX005 (ip), vehicle: saline): 109 % of control

Cc1ccc(S(=O)(=O)ONNc2nccc3ccccc23)cc1
T/C (dose: 100.0 mg/kg/injection, schedule: Q04DX002 (ip), vehicle: saline): 103 % of control | T/C (dose: 200.0 mg/kg/injection, schedule: Q04DX002 (ip), vehicle: saline): 96 % of control | T/C (dose: 400.0 mg/kg/injection, schedule: Q04DX002 (ip), vehicle: saline): 97 % of control

O=Nc1ccc2ccccc2c1O
T/C (dose: 12.5 mg/kg/injection, schedule: Q01DX001 (ip), vehicle: Klucel (hydroxypropylcellulose) (HPC)): 103 % of control | T/C (dose: 25.0 mg/kg/injection, schedule: Q01DX001 (ip), vehicle: Klucel (hydroxypropylcellulose) (HPC)): 108 % of control | T/C (dose: 50.0 mg/kg/injection, schedule: Q01DX001 (ip), vehicle: Klucel (hydroxypropylcellulose) (HPC)): 111 % of control

CCOC(=O)/C=C1/SC(N2CCCCC2)C(=O)N1CC (configuration not stated)
T/C (dose: 50.0 mg/kg/injection, schedule: Q01DX009 (ip), vehicle: Klucel (hydroxypropylcellulose) (HPC)): 106 % of control | T/C (dose: 100.0 mg/kg/injection, schedule: Q01DX009 (ip), vehicle: Klucel (hydroxypropylcellulose) (HPC)): 110 % of control | T/C (dose: 200.0 mg/kg/injection, schedule: Q01DX009 (ip), vehicle: Klucel (hydroxypropylcellulose) (HPC)): 110 % of control

CCCN=Cc1ccccc1O.CCCN=Cc1ccccc1O.[Cu]
T/C (dose: 3.75 mg/kg/injection, schedule: Q01DX005 (ip), vehicle: Klucel (hydroxypropylcellulose) (HPC)): 100 % of control | T/C (dose: 7.5 mg/kg/injection, schedule: Q01DX005 (ip), vehicle: Klucel (hydroxypropylcellulose) (HPC)): 104 % of control | T/C (dose: 15.0 mg/kg/injection, schedule: Q01DX005 (ip), vehicle: Klucel (hydroxypropylcellulose) (HPC)): 97 % of control | T/C (dose: 30.0 mg/kg/injection, schedule: Q01DX005 (ip), vehicle: Klucel (hydroxypropylcellulose) (HPC)): 92 % of control and 97 % of control | T/C [12]: 108 % of control and 115 % of control

CC(=Nc1ccc(Cl)cc1N)c1c(O)cc(C)oc1=O
T/C [12]: 91 % of control | T/C [13]: 96 % of control

CCOC(=O)CCC1CCCC(CCC(=O)OCC)C1=O (configuration not stated)
T/C (dose: 50.0 mg/kg/injection, schedule: Q01DX009 (ip), vehicle: other): 105 % of control | T/C (dose: 100.0 mg/kg/injection, schedule: Q01DX009 (ip), vehicle: other): 101 % of control | T/C (dose: 200.0 mg/kg/injection, schedule: Q01DX009 (ip), vehicle: other): 106 % of control

COc1ccc(N2C(=S)N(c3cccc(Cl)c3Cl)C(=O)C(N=Nc3ccccc3Cl)C2O)cc1 (configuration not stated)
T/C (dose: 100.0 mg/kg/injection, schedule: Q04DX003 (ip), vehicle: distilled water + alcohol): 102 % of control | T/C (dose: 200.0 mg/kg/injection, schedule: Q04DX003 (ip), vehicle: distilled water + alcohol): 99 % of control | T/C (dose: 400.0 mg/kg/injection, schedule: Q04DX003 (ip), vehicle: distilled water + alcohol): 97 % of control

Cc1ccc([SeH])cc1.[Sn]
T/C (dose: 25.0 mg/kg/injection, schedule: Q01DX009 (ip), vehicle: saline with Tween-80): 92 % of control | T/C [14]: 94 % of control | T/C [15]: 86 % of control

C/C(=C\c1ccccc1)c1ccccn1
T/C (dose: 50.0 mg/kg/injection, schedule: Q01DX005 (ip), vehicle: saline): 99 % of control | T/C (dose: 100.0 mg/kg/injection, schedule: Q01DX005 (ip), vehicle: saline): 105 % of control | T/C (dose: 200.0 mg/kg/injection, schedule: Q01DX005 (ip), vehicle: saline): 113 % of control

O=C1C=CC(=O)C=C1
T/C (dose: 3.12 mg/kg/injection, schedule: Q04DX003 (ip), vehicle: saline with Tween-80): 101 % of control | T/C [16]: 99 % of control

CC(=O)OC1CCC2(C)C(C1)CC(OC(C)=O)C1C2CC(OC(C)=O)C2(C)C(C(C)CC=C(c3ccccc3)c3ccccc3)CCC12 (configuration not stated)
T/C [14]: 100 % of control | T/C [15]: 98 % of control | T/C [17]: 99 % of control

CCCCCCCCCCCCN(C)S(=O)(=O)c1ccc(Cl)c(N)c1
T/C [2]: 95 % of control | T/C [3]: 100 % of control | T/C (dose: 200.0 mg/kg/injection, schedule: Q04DX003 (ip), vehicle: saline with Tween-80): 95 % of control

C=C(CN(C)C)C(=O)c1ccc(Oc2ccccc2)cc1
T/C (dose: 0.93 mg/kg/injection, schedule: Q01DX005 (ip), vehicle: saline): 104 % of control | T/C (dose: 1.87 mg/kg/injection, schedule: Q01DX005 (ip), vehicle: saline): 100 % of control | T/C (dose: 3.75 mg/kg/injection, schedule: Q01DX005 (ip), vehicle: saline): 100 % of control

CC(=O)OC1C(=O)OC(=O)C(OC(C)=O)C1OC(C)=O (configuration not stated)
T/C [18]: 100 % of control | T/C [7]: 93 % of control | T/C [8]: 100 % of control

COc1ccc(NC(=O)C2C(=O)N(c3ccc(OC)cc3)C(=O)/C2=N/N=C(N)N)cc1 (configuration not stated)
T/C (dose: 25.0 mg/kg/injection, schedule: Q04DX002 (ip), vehicle: saline with Tween-80): 99 % of control | T/C (dose: 50.0 mg/kg/injection, schedule: Q04DX002 (ip), vehicle: saline with Tween-80): 101 % of control | T/C (dose: 100.0 mg/kg/injection, schedule: Q04DX002 (ip), vehicle: saline with Tween-80): 98 % of control and 101 % of control

NC=NCC(=O)O
T/C [18]: 96 % of control | T/C [7]: 100 % of control | T/C [8]: 99 % of control

Nc1nc(N2CCCCC2)c2nc(Cl)n(C3OC(CO)C(O)C3O)c2n1 (configuration not stated)
T/C [9]: 92 % of control | T/C [10]: 101 % of control | T/C [11]: 100 % of control

CCn1c2nc(=O)n(C)c(=O)c-2[n+]([O-])c2cc(C)ccc21
T/C [16]: 88 % of control | T/C (dose: 12.5 mg/kg/injection, schedule: Q04DX003 (ip), vehicle: saline with Tween-80): 86 % of control | T/C [1]: 88 % of control | T/C [2]: 86 % of control

Cc1c(-c2ccccc2)ccnc1/C=N/NC(=S)Nc1ccc(N(C)C)cc1
T/C (dose: 3.12 mg/kg/injection, schedule: Q01DX009 (ip), vehicle: saline with Tween-80): 119 % of control | T/C (dose: 6.25 mg/kg/injection, schedule: Q01DX009 (ip), vehicle: saline with Tween-80): 153 % of control

CCC(C)C(=O)OC1CCC=C2C=CC(C)C(CCC3CC(O)CC(=O)O3)C21 (configuration not stated)
T/C (dose: 15.0 mg/kg/injection, schedule: Q01DX009 (ip), vehicle: saline): 107 % of control | T/C (dose: 30.0 mg/kg/injection, schedule: Q01DX009 (ip), vehicle: saline): 100 % of control | T/C (dose: 60.0 mg/kg/injection, schedule: Q01DX009 (ip), vehicle: saline): 100 % of control

Cc1nnc(Cl)c(C#N)c1C
T/C [4]: 104 % of control | T/C [5]: 92 % of control | T/C [6]: 95 % of control

CC(C)(OC(=O)NC(CC(N)=O)C(=O)O)c1ccc(N=Nc2ccccc2)cc1 (configuration not stated)
T/C [14]: 97 % of control | T/C [15]: 92 % of control | T/C [17]: 92 % of control
